Experimental data: patent US20230045421A1 (priority 2018, published 2023)

system: HBV rcDNA; test: HepDE19 assay with bDNA quantitation of HBV rcDNA; type: cell-based, hepatitis B virus; conditions: HepDE19 assay, inhibition of formation of relaxed circular DNA (rcDNA), bDNA quantitation; read-out: DE-19bDNA EC50
Summary of the method: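 HepDE19 cells (HepG2-derived, Tet-regulated HBV replication) were deprived of tetracycline and then exposed to compounds for 7 days at 37 °C in 0.5% DMSO, 8-point titration from 25 μM. rcDNA was quantified by bDNA and EC50/EC90 came from 4-parameter fits. CC50 was measured by CellTiter-Glo ATP content on replicate plates after 4 days.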

SMILES	EC50 [nM]
CC(c1c[nH]c(=O)c2ccc(F)cc12)N(CCS(N)(=O)=O)C(=O)Nc1ccc(F)c(Cl)c1 (single isomer, unassigned) [Compound 381, 2-(3-(3-Chloro-4-fluorophenyl)-1-(1-(6-fluoro-1-oxo-1,2-dihydroisoquinolin-4-yl)ethyl)ureido) ethane-1-sulfonamide]	1400
CC(c1c[nH]c(=O)c2ccc(F)cc12)N(CCS(N)(=O)=O)C(=O)Nc1ccc(F)c(Cl)c1 (single isomer, unassigned) [Compound 382, 2-(3-(3-Chloro-4-fluorophenyl)-1-(1-(6-fluoro-1-oxo-1,2-dihydroisoquinolin-4-yl)ethyl)ureido) ethane-1-sulfonamide]	16
CC(c1c[nH]c(=O)c2cc(F)ccc12)N(CCS(N)(=O)=O)C(=O)Nc1ccc(F)c(Cl)c1 (single isomer, unassigned) [Compound 383, 2-(3-(3-Chloro-4-fluorophenyl)-1-(1-(7-fluoro-1-oxo-1,2-dihydroisoquinolin-4-yl)ethyl)ureido) ethane-1-sulfonamide]	7000
CC(c1c[nH]c(=O)c2cc(F)ccc12)N(CCS(N)(=O)=O)C(=O)Nc1ccc(F)c(Cl)c1 (single isomer, unassigned) [Compound 384, 2-(3-(3-Chloro-4-fluorophenyl)-1-(1-(7-fluoro-1-oxo-1,2-dihydroisoquinolin-4-yl)ethyl)ureido) ethane-1-sulfonamide]	10
CC(c1c[nH]c(=O)c2cc(F)c(F)cc12)N(CCS(N)(=O)=O)C(=O)Nc1ccc(F)c(Cl)c1 (single isomer, unassigned) [Compound 385, 2-(3-(3-Chloro-4-fluorophenyl)-1-(1-(6,7-difluoro-1-oxo-1,2-dihydroisoquinolin-4-yl)ethyl)ureido) ethane-1-sulfonamide]	2600
CC(c1c[nH]c(=O)c2cc(F)c(F)cc12)N(CCS(N)(=O)=O)C(=O)Nc1ccc(F)c(Cl)c1 (single isomer, unassigned) [Compound 386, 2-(3-(3-Chloro-4-fluorophenyl)-1-(1-(6,7-difluoro-1-oxo-1,2-dihydroisoquinolin-4-yl)ethyl)ureido) ethane-1-sulfonamide]	11
CC(c1c[nH]c(=O)c2cc(F)c(F)cc12)N(CCS(N)(=O)=O)C(=O)Nc1ccc(F)cc1 (single isomer, unassigned) [Compound 387, 2-(1-(1-(6,7-Difluoro-1-oxo-1,2-dihydroisoquinolin-4-yl)ethyl)-3-(4-fluorophenyl)ureido)ethane-1-sulfonamide]	40
CC(c1c[nH]c(=O)c2c(F)cc(F)cc12)N(CCS(N)(=O)=O)C(=O)Nc1ccc(F)c(Cl)c1 (single isomer, unassigned) [Compound 389, 2-(3-(3-Chloro-4-fluorophenyl)-1-(1-(6,8-difluoro-1-oxo-1,2-dihydroisoquinolin-4-yl)ethyl)ureido) ethane-1-sulfonamide]	3300
CC(c1c[nH]c(=O)c2c(F)cc(F)cc12)N(CCS(N)(=O)=O)C(=O)Nc1ccc(F)c(Cl)c1 (single isomer, unassigned) [Compound 390, 2-(3-(3-Chloro-4-fluorophenyl)-1-(1-(6,8-difluoro-1-oxo-1,2-dihydroisoquinolin-4-yl)ethyl)ureido) ethane-1-sulfonamide]	17
CC(c1c[nH]c(=O)c2c(F)c(F)ccc12)N(CCS(N)(=O)=O)C(=O)Nc1ccc(F)c(Cl)c1 (single isomer, unassigned) [Compound 391, 2-(3-(3-Chloro-4-fluorophenyl)-1-(1-(7,8-difluoro-1-oxo-1,2-dihydroisoquinolin-4-yl)ethyl)ureido) ethane-1-sulfonamide]	2900
CC(c1c[nH]c(=O)c2c(F)c(F)ccc12)N(CCS(N)(=O)=O)C(=O)Nc1ccc(F)c(Cl)c1 (single isomer, unassigned) [Compound 392, 2-(3-(3-Chloro-4-fluorophenyl)-1-(1-(7,8-difluoro-1-oxo-1,2-dihydroisoquinolin-4-yl)ethyl)ureido) ethane-1-sulfonamide]	26
CC(c1c[nH]c(=O)c2c(F)c(F)ccc12)N(CCS(N)(=O)=O)C(=O)Nc1ccc(F)cc1 (single isomer, unassigned) [Compound 394, 2-(1-(1-(7,8-Difluoro-1-oxo-1,2-dihydroisoquinolin-4-yl)ethyl)-3-(4-fluorophenyl)ureido)ethane-1-sulfonamide]	10000
CC(c1c[nH]c(=O)c2c(F)c(F)ccc12)N(CCS(N)(=O)=O)C(=O)Nc1ccc(F)cc1 (single isomer, unassigned) [Compound 395, 2-(1-(1-(7,8-Difluoro-1-oxo-1,2-dihydroisoquinolin-4-yl)ethyl)-3-(4-fluorophenyl)ureido)ethane-1-sulfonamide]	300
CC(c1c[nH]c(=O)c2c(F)cccc12)N(CCS(N)(=O)=O)C(=O)Nc1ccc(F)c(Cl)c1 (single isomer, unassigned) [Compound 397, 2-(3-(3-Chloro-4-fluorophenyl)-1-(1-(8-fluoro-1-oxo-1,2-dihydroisoquinolin-4-yl)ethyl)ureido) ethane-1-sulfonamide]	100
CCN(C(=O)Nc1ccc(F)cc1)C(C)c1c[nH]c(=O)c2cc(F)c(F)cc12 (single isomer, unassigned) [Compound 402, 1-(1-(6,7-Difluoro-1-oxo-1,2-dihydroisoquinolin-4-yl)ethyl)-1-ethyl-3-(4-fluorophenyl)urea]	10000
CCN(C(=O)Nc1ccc(F)cc1)C(C)c1c[nH]c(=O)c2cc(F)c(F)cc12 (single isomer, unassigned) [Compound 403, 1-(1-(6,7-Difluoro-1-oxo-1,2-dihydroisoquinolin-4-yl)ethyl)-1-ethyl-3-(4-fluorophenyl)urea]	28
CCN(C(=O)Nc1ccc(F)c(Cl)c1)C(C)c1c[nH]c(=O)c2cc(F)c(F)cc12 (single isomer, unassigned) [Compound 406, 3-(3-Chloro-4-fluorophenyl)-1-(1-(6,7-difluoro-1-oxo-1,2-dihydroisoquinolin-4-yl)ethyl)-1-ethylurea]	2100
CCN(C(=O)Nc1ccc(F)c(Cl)c1)C(C)c1c[nH]c(=O)c2cc(F)c(F)cc12 (single isomer, unassigned) [Compound 407, 3-(3-Chloro-4-fluorophenyl)-1-(1-(6,7-difluoro-1-oxo-1,2-dihydroisoquinolin-4-yl)ethyl)-1-ethylurea]	6
CC(c1c[nH]c(=O)c2cc(F)c(F)cc12)N(C)C(=O)Nc1ccc(F)c(F)c1 (single isomer, unassigned) [Compound 408, 1-(1-(6,7-Difluoro-1-oxo-1,2-dihydroisoquinolin-4-yl)ethyl)-3-(3,4-difluorophenyl)-1-methylurea]	3400
CC(c1c[nH]c(=O)c2cc(F)c(F)cc12)N(C)C(=O)Nc1ccc(F)c(F)c1 (single isomer, unassigned) [Compound 409, 1-(1-(6,7-Difluoro-1-oxo-1,2-dihydroisoquinolin-4-yl)ethyl)-3-(3,4-difluorophenyl)-1-methylurea]	13

same assay, conditions: read-out: DE-19bDNA EC50; HepDE19 assay, inhibition of formation of relaxed circular DNA (rcDNA), bDNA quantitation

SMILES	EC50 [nM]
CN(C(=O)Nc1ccc(F)c(Cl)c1)C(CO)c1c[nH]c(=O)c2ccccc12 (single isomer, unassigned) [Compound 379, 3-(3-Chloro-4-fluorophenyl)-1-(2-hydroxy-1-(1-oxo-1,2-dihydroisoquinolin-4-yl)ethyl)-1-methylurea]	140
CN(C(=O)Nc1ccc(F)c(Cl)c1)C(CO)c1c[nH]c(=O)c2ccccc12 (single isomer, unassigned) [Compound 380, 3-(3-Chloro-4-fluorophenyl)-1-(2-hydroxy-1-(1-oxo-1,2-dihydroisoquinolin-4-yl)ethyl)-1-methylurea]	17000
CC(c1c[nH]c(=O)c2cc(F)c(F)cc12)N(C)C(=O)Nc1ccccc1 (single isomer, unassigned) [Compound 398, 1-(1-(6,7-Difluoro-1-oxo-1,2-dihydroisoquinolin-4-yl)ethyl)-1-methyl-3-phenylurea]	16000
CC(c1c[nH]c(=O)c2cc(F)c(F)cc12)N(C)C(=O)Nc1ccccc1 (single isomer, unassigned) [Compound 399, 1-(1-(6,7-Difluoro-1-oxo-1,2-dihydroisoquinolin-4-yl)ethyl)-1-methyl-3-phenylurea]	110
CC(c1c[nH]c(=O)c2cc(F)c(F)cc12)N(C)C(=O)Nc1ccc(Cl)cc1 (single isomer, unassigned) [Compound 400, 3-(4-Chlorophenyl)-1-(1-(6,7-difluoro-1-oxo-1,2-dihydroisoquinolin-4-yl)ethyl)-1-methylurea]	7200
CC(c1c[nH]c(=O)c2cc(F)c(F)cc12)N(C)C(=O)Nc1ccc(Cl)cc1 (single isomer, unassigned) [Compound 401, 3-(4-Chlorophenyl)-1-(1-(6,7-difluoro-1-oxo-1,2-dihydroisoquinolin-4-yl)ethyl)-1-methylurea]	90
CCN(C(=O)Nc1ccccc1)C(C)c1c[nH]c(=O)c2cc(F)c(F)cc12 (single isomer, unassigned) [Compound 404, 1-(1-(6,7-Difluoro-1-oxo-1,2-dihydroisoquinolin-4-yl)ethyl)-1-ethyl-3-phenylurea]	18000
CCN(C(=O)Nc1ccccc1)C(C)c1c[nH]c(=O)c2cc(F)c(F)cc12 (single isomer, unassigned) [Compound 405, 1-(1-(6,7-Difluoro-1-oxo-1,2-dihydroisoquinolin-4-yl)ethyl)-1-ethyl-3-phenylurea]	58
CC(c1c[nH]c(=O)c2cc(F)c(F)cc12)N(C)C(=O)Nc1cccc(F)c1 (single isomer, unassigned) [Compound 410, 1-(1-(6,7-Difluoro-1-oxo-1,2-dihydroisoquinolin-4-yl)ethyl)-3-(3-fluorophenyl)-1-methylurea]	2800
